Source: the supplement of paper PMC10307832

Columns and labels:
Experiment in all cases: relative viability (nuclei count vs DMSO), 5 days (fraction); higher = more cells survive
[1] = compound: C1COCCN1C2=NC(=NC3=C2OC4=C3C=CC=N4)C5=CC(=CC=C5)NC(=O)C6=CN=C(C=C6)N + Nc1nc2[nH]cc(CCc3ccc(C(=O)N[C@@H](CCC(=O)O)C(=O)O)cc3)c2c(=O)[nH]1 [Pemetrexed] (partner 0.2 µM)
Outline: (§1)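 Five library-drug doses in √10 steps were combined with a fixed anchor-drug dose, or a single drug was given alone, by pin tool to lung cancer cell lines in 1536-well plates the day after seeding. Nuclei were stained and counted after 5 days. Relative viability is the nuclei count in treated wells over that in vehicle wells, taken as the median of duplicate plates.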

SGI-1776 + Lapatinib = compound: CN1CCC(CNc2ccc3ncc(-c4cccc(OC(F)(F)F)c4)n3n2)CC1 [SGI-1776] + CS(=O)(=O)CCNCc1ccc(-c2ccc3ncnc(Nc4ccc(OCc5cccc(F)c5)c(Cl)c4)c3c2)o1 [Lapatinib] (partner 2 µM)
Outline: as §1

SGI-1776 + Navitoclax = compound: CN1CCC(CNc2ccc3ncc(-c4cccc(OC(F)(F)F)c4)n3n2)CC1 [SGI-1776] + CC1(C)CCC(c2ccc(Cl)cc2)=C(CN2CCN(c3ccc(C(=O)NS(=O)(=O)c4ccc(N[C@H](CCN5CCOCC5)CSc5ccccc5)c(S(=O)(=O)C(F)(F)F)c4)cc3)CC2)C1 [Navitoclax] (partner 0.5 µM)
Outline: as §1

[2] = compound: C1COCCN1C2=NC(=NC3=C2OC4=C3C=CC=N4)C5=CC(=CC=C5)NC(=O)C6=CN=C(C=C6)N + Cc1nc(NC(=O)N2CCC[C@H]2C(N)=O)sc1-c1ccnc(C(C)(C)C(F)(F)F)c1 [Alpelisib] (partner 2 µM)
Outline: as §1

**Q.** Which results are given for UMC-11?
**A.** relative viability ([1]; first compound 0.02 µM): 0.772; relative viability ([1]; first compound 0.06325 µM): 0.827; relative viability ([1]; first compound 0.2 µM): 0.694; relative viability ([1]; first compound 0.6325 µM): 0.814; relative viability ([1]; first compound 2 µM): 0.445; relative viability (SGI-1776 + Lapatinib; first compound 0.08 µM): 0.907; relative viability (SGI-1776 + Lapatinib; first compound 0.8 µM): 1.12; relative viability (SGI-1776 + Lapatinib; first compound 2.53 µM): 1.11; relative viability (SGI-1776 + Lapatinib; first compound 8 µM): 0.644; relative viability (SGI-1776 + Navitoclax; first compound 0.08 µM): 0.265; relative viability (SGI-1776 + Navitoclax; first compound 0.8 µM): 0.32; relative viability (SGI-1776 + Navitoclax; first compound 2.53 µM): 0.275; relative viability (SGI-1776 + Navitoclax; first compound 8 µM): 0.264; relative viability ([2]; first compound 0.02 µM): 1.06; relative viability ([2]; first compound 0.06325 µM): 1.04; relative viability ([2]; first compound 0.2 µM): 1.03; relative viability ([2]; first compound 0.6325 µM): 1.08; relative viability ([2]; first compound 2 µM): 0.593
